Reference: patent US4751233A, “8[2-(imidazolyl)thio] and 8[2-(thiazolyl)thio]-5,6,7,8-tetrahydroquinolines, and anti-allergic use thereof” (Roussel Uclaf, priority 1985, dated 1988)

Key:
LTD4 receptor = molecular target: T1, LTD4 receptor (Cavia porcellus, UniProt Q2NNR5); assay: LTD4 RECEPTOR: inhibition of specific binding of [3H]-LTD4 to a membrane preparation of guinea-pig lung tissue; conditions: [3H]-LTD4, guinea-pig lung membranes; for IC50: graphically from dose-response curves, read-out: LTD4 receptor (concentration of tested compound causing 50% inhibition of specific binding)
T1 construct: membrane preparation of guinea-pig lung tissue; from tissue; host or cells: guinea-pig lung membranes
T1 sequence (Q2NNR5 1-340): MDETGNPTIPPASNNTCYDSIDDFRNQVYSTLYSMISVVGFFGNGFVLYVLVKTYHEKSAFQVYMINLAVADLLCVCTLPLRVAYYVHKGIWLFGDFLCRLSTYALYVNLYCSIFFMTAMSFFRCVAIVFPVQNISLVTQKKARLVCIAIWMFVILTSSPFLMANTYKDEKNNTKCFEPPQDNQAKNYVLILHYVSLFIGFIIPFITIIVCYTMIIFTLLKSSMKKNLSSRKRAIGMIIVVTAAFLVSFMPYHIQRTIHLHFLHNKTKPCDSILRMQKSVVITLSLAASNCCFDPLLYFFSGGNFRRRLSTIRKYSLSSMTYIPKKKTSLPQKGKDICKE
Experimental: Inhibition of the specific binding of [^3 H]-LTD4 to a membrane preparation of guinea-pig lung tissue was assayed by a modification of a method reported by Bruns et al [Life Sciences, Vol. 33, pp. 645-653 (1983)]and the data presented in Table II are micromolar concentrations of the tested compound causing 50% ihibition of specific binding determined graphically from dose-response curves.

5-lipoxygenase = molecular target: T2, 5-lipoxygenase (Rattus norvegicus, UniProt P12527); assay: 5-LIPOX: inhibition of Ca++ ionophore (A23187) induced release of 5-lipoxygenase products (leukotriene B4 and 5-HETE) from [14C]arachidonic acid pre-labelled rat peritoneal neutrophils; type: cell-based; conditions: A23187-induced release of leukotriene B4 and 5-HETE, graphically from dose-response curves, read-out: 5-LIPOX (concentration of test compound causing 50% inhibition of control response)
T2 sequence (P12527 1-673): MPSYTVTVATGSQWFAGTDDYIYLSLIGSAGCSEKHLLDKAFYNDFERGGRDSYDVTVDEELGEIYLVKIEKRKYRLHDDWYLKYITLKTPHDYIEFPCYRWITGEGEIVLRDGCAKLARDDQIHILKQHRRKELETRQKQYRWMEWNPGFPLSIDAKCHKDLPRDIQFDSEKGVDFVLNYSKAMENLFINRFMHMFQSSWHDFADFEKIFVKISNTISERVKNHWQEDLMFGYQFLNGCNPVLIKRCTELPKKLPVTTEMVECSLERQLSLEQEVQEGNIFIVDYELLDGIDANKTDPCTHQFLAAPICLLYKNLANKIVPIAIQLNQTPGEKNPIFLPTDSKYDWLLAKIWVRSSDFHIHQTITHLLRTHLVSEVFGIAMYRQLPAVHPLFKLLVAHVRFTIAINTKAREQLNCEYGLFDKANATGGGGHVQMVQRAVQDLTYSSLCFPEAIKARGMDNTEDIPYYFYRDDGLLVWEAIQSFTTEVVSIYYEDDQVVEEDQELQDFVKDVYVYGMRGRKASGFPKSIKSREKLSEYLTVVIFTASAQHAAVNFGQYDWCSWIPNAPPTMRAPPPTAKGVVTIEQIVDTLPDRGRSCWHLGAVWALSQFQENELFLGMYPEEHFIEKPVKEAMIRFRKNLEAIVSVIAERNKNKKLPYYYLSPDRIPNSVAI
Text: Inhibition of the Ca^++ ionophore (A23187) induced release of 5-lipoxygenase products, leukotriene B4 and 5-HETE, from [^14 C]arachidonic acid pre-labelled rat peritoneal neutrophils. Assayed by a modification of the method reported by Ahnfelt-Ronne et al [Biochemical Pharmacology, Vol. 31, No. 16, pp 2619-2624 (1982)]. Data presented in Table II are micromolar concentrations of test compound causing 50% inhibition of control response determined graphically from dose-response curves.

Row | IC50 (LTD4 receptor) [µM] | IC50 (5-lipoxygenase) [µM] | LTD4 receptor, remark printed beside the value (LTD4 receptor; remark in words) | SMILES
1 | 10 | 1.8 | – | c1cnc2c(c1)CCCC2Sc1nc2ccccc2s1 (stereo not shown) [Example 1, 8-(2-benzothiazolylthio)-5,6,7,8-tetrahydroquinoline]
2 | – | 58 | – | COc1ccc2nc(SC3CCCc4cccnc43)[nH]c2c1 (stereo not shown) [Example 2, 8-(6-methoxy-1H-benzimidazol-2-ylthio)-5,6,7,8-tetrahydroquinoline]
3 | > 100 | 35.1 | – | c1cnc2c(c1)CCCC2Sc1nc2ccccc2[nH]1 (stereo not shown) [Example 3, 8-(1H-benzimidazol-2-ylthio)-5,6,7,8-tetrahydroquinoline]
4 | – | 20 | – | CCOC(=O)Cc1ccc2[nH]c(SC3CCCc4cccnc43)nc2c1 (stereo not shown) [Example 4, ethyl 2-[(5,6,7,8-tetrahydro-8-quinolinyl)-thio]-1H-benzimidazole-5-acetate]
5 | > 100 | 6.6 | – | O=[N+]([O-])c1ccc2nc(SC3CCCc4cccnc43)[nH]c2c1 (stereo not shown) [Example 5, 8-(6-nitro-1H-benzimidazol-2-ylthio)-5,6,7,8-tetrahydroquinoline]
6 | 74 | 5 | – | Cc1ccc2nc(SC3CCCc4cccnc43)[nH]c2c1 (stereo not shown) [Example 6, 8-(6-methyl-1H-benzimidazol-2-ylthio)-5,6,7,8-tetrahydroquinoline]
7 | – | 4.2 | – | Clc1cc2nc(SC3CCCc4cccnc43)[nH]c2cc1Cl (stereo not shown) [Example 7, 8-(5,6-dichloro-1H-benzimidazol-2-ylthio)-5,6,7,8-tetrahydroquinoline]
8 | 6.3 | 1.9 | – | Clc1ccc2nc(SC3CCCc4cccnc43)[nH]c2c1 (stereo not shown) [Example 8, 8-(6-chloro-1H-benzimidazol-2-ylthio)-5,6,7,8-tetrahydroquinoline]
9 | > 100 | 16.9 | – | c1cnc2c(c1)CCCC2Sc1nc2ccccc2o1 (stereo not shown) [Example 9, 8-(2-benzoxazolylthio)-5,6,7,8-tetrahydroquinoline]
10 | 12 | 14.1 | – | COC(=O)Cc1ccc2oc(SC3CCCc4cccnc43)nc2c1 (stereo not shown) [Example 10, methyl 2-[(5,6,7,8-tetrahydro-8-quinolinyl)-thio]benzoxazole-5-acetate]
11 | 100 | 1.5 | – | Clc1ccc2sc(SC3CCCc4cccnc43)nc2c1 (stereo not shown) [Example 11, 8-[(5-chloro-2-benzothiazolyl)thio]-5,6,7,8-tetrahydroquinoline]
12 | 8.9 | 2.6 | – | Clc1ccc2nc(SC3CCCc4cccnc43)sc2c1 (stereo not shown) [Example 12]
13 | 9 | 1.2 | – | CCOc1ccc2nc(SC3CCCc4cccnc43)sc2c1 (stereo not shown) [Example 13, 8-[(6-ethoxy-2-benzothiazolyl)thio]-5,6,7,8-tetrahydroquinoline]
14 | > 100 | > 100 | – | O=c1[nH]c(SC2CCCc3cccnc32)nc2ccccc12 (stereo not shown) [Example 14, 2-[(5,6,7,8-tetrahydroquinoline-8-yl)thio]-4(3H)-quinazolinone]
15 | 9.5 | 2.3 | – | Cc1ccc2nc(SC3CCCc4cccnc43)sc2c1 (stereo not shown) [Example 15, 8-[(6-methyl-2-benzothiazolyl)thio]-5,6,7,8-tetrahydroquinoline]
16 | > 100 | 2 | – | O=[N+]([O-])c1ccc2sc(SC3CCCc4cccnc43)nc2c1 (stereo not shown) [Example 16, 8-[(5-nitro-2-benzothiazolyl)thio]-5,6,7,8-tetrahydroquinoline]
17 | 7.1 | 1.5 | – | Cc1ccc2sc(SC3CCCc4cccnc43)nc2c1 (stereo not shown) [Example 17, 8-[(5-methyl-2-benzothiazolyl)thio]-5,6,7,8-tetrahydroquinoline]
18 | 100 | 45 | – | Clc1cc2nc(SC3CCCc4cccnc43)sc2cc1Cl (stereo not shown) [Example 18, 8-[(5,6-dichloro-2-benzothiazolyl)thio]-5,6,7,8-tetrahydroquinoline]
19 | 1.7 | 1.1 | – | CCSc1ccc2nc(SC3CCCc4cccnc43)sc2c1 (stereo not shown) [Example 19, 8-[(6-ethylthio-2-benzothiazolyl)thio]-5,6,7,8-tetrahydroquinoline]
20 | > 100 | 4 | – | O=[N+]([O-])c1ccc2nc(SC3CCCc4cccnc43)sc2c1 (stereo not shown) [Example 20]
21 | 18 | 2.6 | – | FC(F)(F)c1ccc2sc(SC3CCCc4cccnc43)nc2c1 (stereo not shown) [Example 21, 8-[(5-trifluoromethyl-2-benzothiazolyl)thio]-5,6,7,8-tetrahydroquinoline]
22 | > 100 | 22 | – | Clc1cc(Cl)c2nc(SC3CCCc4cccnc43)sc2c1 (stereo not shown) [Example 22, 8-[(4,6-dichloro-2-benzothiazolyl)thio]-5,6,7,8-tetrahydroquinoline]
23 | 33 | 12 | – | Clc1cccc2sc(SC3CCCc4cccnc43)nc12 (stereo not shown) [Example 23]
24 | 14 | 3.5 | – | Cc1cccc2sc(SC3CCCc4cccnc43)nc12 (stereo not shown) [Example 24, 8-[(4-methyl-2-benzothiazolyl)thio]-5,6,7,8-tetrahydroquinoline]
25 | > 100 | 3 | pot. | c1ccc(-c2nc(SC3CCCc4cccnc43)[nH]c2-c2ccccc2)cc1 (stereo not shown) [Example 25, 8-(4,5-diphenyl-1H-imidazol-2-ylthio)-5,6,7,8-tetrahydroquinoline]
26 | > 100 | > 100 | – | Cn1ccnc1SC1CCCc2cccnc21 (stereo not shown) [Example 26, 8-(1-methylimidazol-2-ylthio)-5,6,7,8-tetrahydroquinoline]
27 | > 100 | 25.1 | – | c1cnc2c(c1)CCCC2Sc1nccs1 (stereo not shown) [Example 27, 8-(2-thiazolylthio)-5,6,7,8-tetrahydroquinoline]
